From US8987486B2, “Trans-2-decenoic acid derivative and pharmaceutical agent containing the same” (Nagoya Industrial Science Research Institute, priority 2010, dated 2015)

How the values were obtained:
PC12 cells = assay: Evaluation using PC12 cells; immunostaining method for MAPK phosphorylation; format: cell-based; conditions: 30 minutes
Procedure: PC12 cells were stimulated using the compound of the present invention and the phosphorylation of MAPK was evaluated by means of immunostaining of the cells. The specific operation procedure is as follows.
A cover glass was placed on a 24-well plate followed by coating with poly-L-lysine. PC12 cells were seeded in a cell density of 50,000 cells/well. (The amount of the medium was 400 μL) On the first day after seeding the cells, the medium was exchanged to DMEM containing 1% fetal bovine serum (FBS) and 0.06% L-glutamine.
The compound which was previously diluted with DMSO was dissolved in 100 μl of medium. After 12 to 16 hours from the medium exchange, 100 μl out of 400 μl of the medium was removed from each well and, in place of that, 100 μl of a medium containing the compound was added.
After 30 minutes from the addition, fixation was conducted using 4% paraformaldehyde (PFA) for 10 minutes. The fixed cells were washed with a Tris-buffered saline (TBS) and a TBS containing 0.3% Triton X was added thereto followed by incubating at 37° C. for 30 minutes. This was washed with a TBS and blocked with a TBS containing 3% skim milk for 30 minutes (at room temperature).
This was washed with a TBS for one time and a primary antibody (anti-phospho-p42/44 MAPK antibody; cell signalings; #9102 being diluted with TBS to an extent of 1,000-fold) was added thereto followed by subjecting to the reaction at 4° C. for one night. The primary antibody was removed and washed with a TBS for three times. After that, the secondary antibody (Alexa 488 goat anti-rabbit antibody; Invitrogen: being diluted to an extent of 1,000-fold using a TBS containing 1% Block Ace) was added thereto and the reaction was conducted at room temperature for 3 hours. The secondary antibody was removed and, after washing with a TBS, fixation was conducted with 4% PFA for 1 hour.
This was washed with a TBS, Hoechst (diluted with a TBS to an extent of 2000-fold) was added thereto and nuclear staining was conducted. This was washed and mounted.
Taking the photographic pictures and counting the positive cells were conducted as follows. An all-in-one microscope (manufactured by Keyence) was used, exposing time for pMAPK (green) was made 1/2.8 s, the place was appropriately decided in a Hoechst-stained image and the pictures were taken. Four pictures per one glass sheet were taken.
Photoshop (Adobe) was used and the cells having above a certain luminance were judged to be positive. All cells were labeled using Hoechst 33342 manufactured by Invitrogen and the rate of pMAPK-positive cells in Hoechst-positive cells was calculated. (cf. Table 7)

[1] = system: paclitaxel-induced peripheral nerve disorder rats; assay: von Frey test in paclitaxel-induced peripheral nerve disorder rats; format: in vivo; conditions: Rattus norvegicus, ip; single intraperitoneal dose of 300 μ/kg; higher of the thresholds after 1 hour and 5 hours; normal threshold 15; read-out: Recovery rate of 50% reaction threshold value (%)
Procedure: The effect of the compound of the present invention was tested for a peripheral nerve disorder which is a side effect induced by the administration of paclitaxel (an anti-cancer agent) such as hyperesthesia including allodynia (severe pain induced by such tactile stimuli which usually cause no pain). The compound of the present invention was intraperitoneally administered to rats as a test drug to conduct a von Frey test.
Male SD rats of six weeks age (one group comprising six rats) were used as experimental animals and paclitaxel (2 mg/kg) was intraperitoneally administered every other day for four times in total to prepare paclitaxel-induced peripheral nerve disorder rats. During 18 and 25 days or during 20 to 27 days after initiation of paclitaxel administration, the test drug was intraperitoneally administered in a single dose of […] and the following von Frey test was conducted.
The rats of the above (1) were placed in a transparent acrylic cage with a wire-meshed floor and habituated for about three minutes and the 50% reaction threshold values to the mechanical stimulus of right hind limb were measured before administration of the test drug and after 1, 5 and 24 hours from initiation of the administration.
The measurement was conducted using von Frey filaments (manufactured by North Coast Medical Inc.) in accordance with the methods of Chaplan, et al. (Journal of Neuroscience Methods, vol. 53, no. 1, pages 55 to 63, 1994) and Dixon, et al. (Annual Review of Pharmacology and Toxicology, vol. 20, pages 441 to 462, 1980). […] The case where the rat escaped at the instance of removing the filament was also called positive. When the positive reaction was noted, stimulus was conducted similarly using a filament of one rank weaker while, when no reaction was noted, stimulus was conducted similarly using a filament of one rank stronger and the point when the reaction changed from negative to positive or from positive to negative was called the first two reactions. After that, stimulus was conducted for continuous four times by the same up-down method. A 50% reaction threshold value to the mechanical stimulus was measured using the reaction to the six stimuli in total and then (mean value)±(standard error) for each group was calculated. Incidentally, when stimulus reached by that of 15.0 g without positive reaction or, when positive reaction continued to 0.4 g, then 15.0 g or 0.25 g was adopted as each threshold value, respectively. With regard to the higher 50% reaction threshold value between the 50% threshold values after 1 hour and 5 hours from administration of a test drug, a recovery rate (%) of the 50% reaction threshold value was calculated by the following expression in which 15 was adopted as the normal threshold value. Recovery rate (%) of 50% reaction threshold value=[(50% reaction threshold value after 1 hour or 5 hours from administration of test drug)−(50% reaction threshold value before administration of test drug)]/[(Normal threshold value)−(50% reaction threshold value before administration of test drug)]

Row | SMILES | inhibition in vivo at 0.3 mg/kg [1] | other results
1 | CCCCCCC/C=C/C(=O)OCCCN(C)C [Compound 2, (E)-3-(dimethylamino)propyl dec-2-enoate] | 58.1% | Rate of pMAPK-positive cells (%) (PC12 cells; 62.5 μg/mL): 0%; Rate of pMAPK-positive cells (%) (PC12 cells; 125 μg/mL): 19%; Rate of pMAPK-positive cells (%) (PC12 cells; 250 μg/mL): 71%; Rate of pMAPK-positive cells (%) (PC12 cells; 500 μg/mL): 53%
2 | CCCCCCC/C=C/C(=O)OC(C)CN(C)C (centres unmarked) [Compound 3, (E)-1-(dimethylamino)propan-2-yl dec-2-enoate] |  | Rate of pMAPK-positive cells (%) (PC12 cells; 62.5 μg/mL): 0%; Rate of pMAPK-positive cells (%) (PC12 cells; 125 μg/mL): 12%; Rate of pMAPK-positive cells (%) (PC12 cells; 250 μg/mL): 14%; Rate of pMAPK-positive cells (%) (PC12 cells; 500 μg/mL): 14%
3 | CCCCCCC/C=C/C(=O)OCC(C)(C)CN(C)C [Compound 5, (E)-3-(dimethylamino)-2,2-dimethylpropyl dec-2-enoate] |  | Rate of pMAPK-positive cells (%) (PC12 cells; 62.5 μg/mL): 1%; Rate of pMAPK-positive cells (%) (PC12 cells; 125 μg/mL): 23%; Rate of pMAPK-positive cells (%) (PC12 cells; 250 μg/mL): 0%; Rate of pMAPK-positive cells (%) (PC12 cells; 500 μg/mL): 24%
4 | CCCCCCC/C=C/C(=O)OCCSC(C)C [Compound 8, (E)-2-(isopropylthio)ethyl dec-2-enoate] | 32.2% | 
5 | CCCCCCC/C=C/C(=O)OCCOC [Compound 9, (E)-2-methoxyethyl dec-2-enoate] | 51.4% | 
6 | CCCCCCC/C=C/C(=O)OCCOCC [Compound 10, (E)-2-ethoxyethyl dec-2-enoate] | 26.4% | 
7 | CCCCCCC/C=C/C(=O)OC(COCC)COCC [Compound 11, (E)-1,3-diethoxy-2-propyl dec-2-enoate] | 37.6% | 
8 | CCCCCCC/C=C/C(=O)OCCOCCN(C)C [Compound 12, (E)-2-(2-(dimethylamino)ethoxy)ethyl dec-2-enoate] |  | Rate of pMAPK-positive cells (%) (PC12 cells; 62.5 μg/mL): 11%; Rate of pMAPK-positive cells (%) (PC12 cells; 125 μg/mL): 17%; Rate of pMAPK-positive cells (%) (PC12 cells; 250 μg/mL): 9%; Rate of pMAPK-positive cells (%) (PC12 cells; 500 μg/mL): 29%
9 | CCCCCCC/C=C/C(=O)NC [Compound 15, (E)-N-methyl dec-2-enamide] | 37.7% | 
10 | CCCCCCC/C=C/C(=O)NCC [Compound 16, (E)-N-ethyl dec-2-enamide] | 59.7% | 
11 | CCCCCCC/C=C/C(=O)NCCCC [Compound 17, (E)-N-butyl dec-2-enamide] | 52.6% | 
12 | CCCCCCC/C=C/C(=O)NCC(C)C [Compound 18, (E)-N-isobutyl dec-2-enamide] | 54.6% | 
13 | CCCCCCC/C=C/C(=O)NCCCCC [Compound 19, (E)-N-pentyl dec-2-enamide] | 73.7% | 
14 | CCCCCCC/C=C/C(=O)NCCC(C)C [Compound 20, (E)-N-isopentyl dec-2-enamide] | 42.5% | 
15 | CCCCCCC/C=C/C(=O)NC(C)(C)CC [Compound 21, (E)-N-tert-pentyl dec-2-enamide] | 63.2% | 
16 | CCCCCCC/C=C/C(=O)NCCCCCC [Compound 22, (E)-N-hexyl dec-2-enamide] | 64.6% | 
17 | CCCCCCC/C=C/C(=O)NCCCCCCC [Compound 23, (E)-N-heptyl dec-2-enamide] | 28.6% | 
18 | CCCCCCC/C=C/C(=O)NC(CCC)CCC [Compound 24, (E)-N-(heptan-4-yl) dec-2-enamide] | 56.1% | 
19 | CCCCCCC/C=C/C(=O)NC(CC)CCCCC (centres unmarked) [Compound 25, (E)-N-(octan-3-yl) dec-2-enamide] | 33.7% | 
20 | CCCCCCC/C=C/C(=O)NC(C)(C)CC(C)(C)C [Compound 26, (E)-N-(2,4,4-trimethylpentan-2-yl) dec-2-enamide] | 55.7% | 

Row | SMILES | inhibition in vivo at 0.3 mg/kg [1] | other results
21 | CCCCCCC/C=C/C(=O)NC1CCCCC1 [Compound 27, (E)-N-cyclohexyl dec-2-enamide] | 46.4% | 
22 | CCCCCCC/C=C/C(=O)Nc1ccccc1 [Compound 28, (E)-N-phenyl dec-2-enamide] | 19.4% | 
23 | CCCCCCC/C=C/C(=O)NCCc1ccccc1 [Compound 29, (E)-N-phenethyl dec-2-enamide] | 46.3% | 
24 | CCCCCCC/C=C/C(=O)N(CC)CC [Compound 31, (E)-N,N-diethyl dec-2-enamide] | 43.1% | Rate of pMAPK-positive cells (%) (PC12 cells; 62.5 μg/mL): 79%; Rate of pMAPK-positive cells (%) (PC12 cells; 125 μg/mL): 95%; Rate of pMAPK-positive cells (%) (PC12 cells; 250 μg/mL): 98%; Rate of pMAPK-positive cells (%) (PC12 cells; 500 μg/mL): 96%
25 | CCCCCCC/C=C/C(=O)N(CCCC)CCCC [Compound 32, (E)-N,N-dibutyl dec-2-enamide] | 70.6% | 
26 | CCCCCCC/C=C/C(=O)N(CCCCC)CCCCC [Compound 33, (E)-N,N-dipentyl dec-2-enamide] | 45.3% | 
27 | CCCCCCC/C=C/C(=O)N(CCCCCC)CCCCCC [Compound 34, (E)-N,N-dihexyl dec-2-enamide] | 48.3% | 
28 | CCCCCCC/C=C/C(=O)N(CC)CCCCCCC [Compound 35, (E)-N-ethyl-N-heptyl dec-2-enamide] | 47.1% | 
29 | CCCCCCC/C=C/C(=O)NCCCN(C)C [Compound 38, (E)-N-3-(dimethylamino)propyl dec-2-enamide] | 52.1% | 
30 | CCCCCCC/C=C/C(=O)NCCCN(CC)CC [Compound 39, (E)-N-3-(diethylamino)propyl dec-2-enamide] | 49.7% | 
31 | CCCCCCC/C=C/C(=O)NCCN(C(C)C)C(C)C [Compound 40, (E)-N-2-(diisopropylamino)ethyl dec-2-enamide] | 71.5% | 
32 | CCCCCCC/C=C/C(=O)NCCN(CCCC)CCCC [Compound 41, (E)-N-2-(dibutylamino)ethyl dec-2-enamide] | 28.3% | 
33 | CCCCCCC/C=C/C(=O)SCCCCC [Compound 48, (E)-S-pentyl dec-2-enethioate] | 50.7% | 
34 | CCCCCCC/C=C/C(=O)SCCC(C)C [Compound 49, (E)-S-isopentyl dec-2-enethioate] | 69.3% | 
35 | CCCCCCC/C=C/C(=O)SCCCCCC [Compound 50, (E)-S-hexyl dec-2-enethioate] | 51.7% | 
36 | CCCCCCC/C=C/C(=O)SCCCCCCC [Compound 51, (E)-S-heptyl dec-2-enethioate] | 45.7% | 
37 | CCCCCCC/C=C/C(=O)SCCCCCCCCCC [Compound 52, (E)-S-decyl dec-2-enethioate] | 18.7% | 
38 | CCCCCCC/C=C/C(=O)SC1CCCC1 [Compound 53, (E)-S-cyclopentyl dec-2-enethioate] | 34.9% | 
39 | CCCCCCC/C=C/C(=O)SCCc1ccccc1 [Compound 54, (E)-S-phenethyl dec-2-enethioate] | 51.9% | 
